Assays:
SET-2 cells = conditions: human megakaryoblastic cell line; cited from earlier work
JAK3 = JAK3 (Homo sapiens, UniProt P52333); conditions: read-out: IC50 for JAK3 kinase inhibition; cited from earlier work
HEL cells = assay: Cytotoxicity, PrestoBlue assay, HEL cells; assay type: cell-based; conditions: Homo sapiens, 72 h, read-out: IC50 toward HEL cells
TF1 cells [1] = assay: Annexin V and dead cell flow cytometric apoptosis analysis; assay type: cell-based, human; conditions: TF1, IC25, IC50, IC75, 24 h
TF1 cells [2] = assay: Cytotoxicity, PrestoBlue assay, TF1 cells; assay type: cell-based; conditions: Homo sapiens, TF-1, 72 h, read-out: IC50 toward TF1 cells
JAK1 = conditions: read-out: IC50 for JAK1; cited from earlier work

Sequence of JAK3 (P52333 781-1124 limits assumed): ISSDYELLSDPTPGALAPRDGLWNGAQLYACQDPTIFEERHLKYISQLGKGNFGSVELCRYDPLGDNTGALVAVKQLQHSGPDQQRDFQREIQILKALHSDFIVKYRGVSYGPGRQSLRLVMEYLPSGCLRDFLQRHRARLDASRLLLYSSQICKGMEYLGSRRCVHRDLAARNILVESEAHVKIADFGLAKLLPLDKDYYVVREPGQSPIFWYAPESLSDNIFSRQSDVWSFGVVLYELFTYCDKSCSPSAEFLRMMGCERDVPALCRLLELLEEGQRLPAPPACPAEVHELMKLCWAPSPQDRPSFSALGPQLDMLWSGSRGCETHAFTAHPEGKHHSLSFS

In the case of `Fc1cc(-c2cccc3ncc(-c4cnn(C5CCNCC5)c4)nc23)cc(F)c1CN1CCOCC1` [NVP-BSK805], the “Apoptosis induction in SET-2 cells” value (SET-2 cells) is given as “induced apoptosis in SET-2 cells”.

In the case of `COc1cc2ncnc(Nc3ccc(O)cc3)c2cc1OC` [WHI-P131], the IC50 (JAK3) is listed as 9 µM.

For `N#CC[C@H](C1CCCC1)n1cc(-c2ncnc3[nH]ccc23)cn1` [ruxolitinib], the IC50 (HEL cells) was 19.3 ± 0.64 µM, the “Percentage of cell apoptosis vs dose, annexin V” value (TF1 cells [1]) was “increased in a dose-dependent manner” and the IC50 (TF1 cells [2]) was 10.7 ± 0.88 µM. For the same compound, the IC50 (JAK1) was […].

With `C[C@@H]1CCN(C(=O)CC#N)C[C@@H]1N(C)c1ncnc2[nH]ccc12` [tofacitinib] the “Percentage of cell apoptosis vs dose, annexin V” value (TF1 cells [1]) was “increased in a dose-dependent manner”.
